{
  "source": "patent US6642209B1",
  "about": "“Use of adenosine compounds to alleviate or normalize pathologically hyperexcited sensory nerve function in a human patient” (priority 1990, dated 2003)",
  "key": {"[1]": {"assay": "Anesthesia score chart comparing anesthetic agents for the four components of anesthesia (Table 1)", "design": "key: 0 no effect; 1 minimal; 2 mostly; 3 maximal"}, "dogs": {"tested_on": "dogs", "assay": "Oxygen transport and regional tissue oxygenation during graded induced hypotension", "assay_type": "in vivo, dog", "method": "Arterial and pulmonary artery (Swan-Ganz) catheters were placed via a femoral cut down. […] Another PO2 sensor probe was placed on the surface of the liver, kidney, subcutaneous, and muscle of the chest wall through a small skin incision. Referring to FIG. 6, the dogs were divided into three groups: (a) hemorrhagic (n=7), (b) isoflurane (n=8), and (c) ATP (n=8). […] The following were measured and/or calculated: […] The data were analyzed using ANOVA with the Bonferroni t-test and unpaired t-test where appropriate, accepting p<0.05 as significant."}, "rabbits": {"tested_on": "rabbits", "assay": "Hypothermia induced under adenosine or ATP infusion", "assay_type": "in vivo, rabbit", "details": "external cooling", "method": "The hypothermic and rewarming effects of an adenosine compound are tested in experimental animals prepared similarly as in the rabbit model described herein to test for anesthetic effects, except that the body temperature is allowed to fall. In animal studies (rabbit) where the room has a temperature of approximately 22° C., the body temperature will fall from a norm of about 39° C. to about 32° C. in about three hours. If the animal is cooled further with ice bags, a temperature of approximately 22° C. can be achieved in three hours without cardiovascular decompensation. Rewarming is done with the aid of a thermal blanket and heat lamp. The effective dosages of adenosine compound ranged from about 100 μg/kg/min to about 5000 μg/kg/min.\nReferring to FIG. 7, the body temperature versus time plots are shown for eight different experiments. In Run 1, adenosine 500 μg/kg/min was administered intravenously to rabbits for six hours. The administration was then stopped and the body temperatures were allowed to recover.\nIn Run 2, ATP 500 μg/kg/min was administered intravenously for six hours. At that time, the body temperature was 31.5° C. The animal's body temperature was allowed to recover by applying external heating for four hours when (at the arrow) the external heating was removed and the temperature was allowed to fall. The body temperature again fell.\nIn Run 3, ATP was administered intravenously. The body temperature stabilized after ten hours at 32.5° C.\nIn Runs 4, 5, and 6, adenosine was administered to rabbits until the body temperature reached a constant value. In Run 4, after five hours, the body temperature stabilized at 33° C. In Run 6, after six hours, the temperature stabilized at 31.5° C.\nIn Run 7, five unmedicated New Zealand rabbits were anesthetized with halothane in O2 using a face mask. The ear vein was cannulated with a 22 gauge plastic catheter for drug infusion. 500 μg/kg/min to 5500 μ/kg/min adenosine was administered IV. Body temperature was monitored through a rectal thermometer. The body temperature started at approximately 38.5° C. After the application of ice bags, the temperature dropped approximately 5.5° C./hr until a minimum body temperature of approximately 22° C. was achieved.\nThe ice bags were removed and external heating applied. The body temperature of all rabbits returned to normal, and the rabbits were apparently normal.\nIn a comparison, in Run 8, six rabbits were anesthetized with isofluane and external cooling applied."}, "experimental animals": {"tested_on": "experimental animals", "details": "cited from earlier work"}},
  "note": "Entries after “also recorded” stand apart in the source; their conditions may differ.",
  "data": [
    {"smiles": "FC(F)OC(Cl)C(F)(F)F", "note": "(centres unmarked) [isoflurane]", "values": [
      {"measurement": "Antinociception (analgesia, less pain perception)", "setting": "[1]; Anesthesia Score 0 to 3", "value": 1},
      {"measurement": "Inhibition of Stress (autonomic responses: blood pressure, heart rate; endocrine and metabolic responses)", "setting": "[1]; Anesthesia Score 0 to 3", "value": 1},
      {"measurement": "Muscle Relaxation", "setting": "[1]; Anesthesia Score 0 to 3", "value": 1},
      {"measurement": "Sleep (unconsciousness, amnesia, sedation)", "setting": "[1]; Anesthesia Score 0 to 3", "value": 3},
      {"measurement": "TOTALS of Anesthesia Score", "setting": "[1]; sum of the four components", "value": 6},
      {"measurement": "O2 supply/demand ratio", "setting": "dogs; graded hypotension to MAP 30 mmHg", "value": "reduced O2 supply/demand ratio"},
      {"measurement": "O2 delivery (DO2)", "setting": "dogs; graded hypotension, higher dosage", "value": "seriously depressed DO2"},
      {"measurement": "survival during body temperature lowering", "setting": "rabbits; Run 7 (five rabbits), Run 8 (six rabbits)", "value": "one rabbit expired due to ventricular fibrillation; also recorded: another expired due to pulmonary edema"},
      {"measurement": "shivering during body temperature lowering", "setting": "rabbits; Run 7, Run 8", "value": "shiver violently"},
      {"measurement": "fatal to effective anesthetic ratio", "setting": "experimental animals; in vivo", "value": "3.02±0.13"},
      {"measurement": "safety range relative to halothane", "setting": "experimental animals; other reports", "value": "about 1.88 times"}
    ]}
  ]
}
